System: iHeps
Experiment: Gene expression profiles of treated iHeps (Luminex)
Format: cell-based, human
Description: Cells were lysed using RLT buffer (Qiagen) or Trizol (Invitrogen) and purified using the Mini-RNeasy kit (Qiagen). Gene expression was determined using Luminex analysis, as previously described. Briefly, total RNA was immobilized on a Qiagen turbo capture 384-well plate, and reverse-transcribed using oligodT priming A biotinylated FlexMap tag sequence unique to each gene of interest and a phosphorylated downstream probe were then added to resulting cDNAs to generate biotinylated FlexMap-tagged amplicons. Universal PCR was then performed for 35 cycles using a biotinylated T7 forward primer and T3 reverse primer in buffer with dNTPs and Taq polymerase. FlexMap microsphere beads conjugated with antitag oligonucleotides were then added and allowed to hybridize. Amplicons were captured by streptavidin-phyoerythrin, and 100 events per bead were analyzed for internal bead color and phyoerythrin reporter fluorescence on a Luminex FlexMap 3D analyzer. Data for replicate loadings, expressed in mean fluorescent intensity of at least 100 beads per sample, were scaled to the human transferrin gene and row-normalized for heat map representation using GeneE open software (Broad Institute).
The ability of compounds of the invention to affect the differentiation and maturation of iHeps was tested. Undifferentiated iPS cells were cultured on Matrigel, supported by primary mouse embryonic fibroblasts. Once confluent, iPS cells were transitioned to differentiation media, with sequential addition of growth factors (Activin A, BMP-4, bFGF, HGF, and OSM) to guide differentiation, first into endoderm, then into hepatic progenitor cells and finally into iHeps. Compound treatment started on day 21 post initiation of differentiation and acted over a period of 9 days. FH1 and FPH2 were used to treat iHeps. FH1 doubled albumin secretion during primary screening (FIG. 4A left) in a dose-responsive manner (FIG. 4A right).
Euclidian clustering analyses groups untreated cells with fetal hepatocytes and treated cells with mature hepatocytes (FIG. 4C left). Of particular interest are ABC transporters, CYP3A4 and GSTP1 expression levels. ABC transporters are known to mature after birth. ABCB11, also known as bile-salt export pump (BSEP), increased ˜3 fold and ˜4 fold in expression levels with FPH2 and FH1 treatment, respectively, compared to untreated iHeps. In contrast, GSTP1 expression, whose levels decrease with maturity, remained low upon FPH2 and FH1 treatment compared to untreated iHeps (FIG. 4C right).

Cc1ccc(Cl)cc1N(CC(=O)Nc1c(F)cccc1F)S(C)(=O)=O [FPH2, 2-(N-(5-chloro-2-methylphenyl)methylsulfonamido)-N-(2,6-difluorophenyl)acetamide]
ABCB11 (BSEP) expression level increase compared to untreated iHeps: ~3 fold | GSTP1 expression compared to untreated iHeps: remained low
